Experimental data reported in patent US9376382B2, “N-substituted isopropyldimethyl azulene sulfonamide derivatives, and preparation method and use thereof” (Sichuan Guokang Pharmaceutical Co., Ltd., priority 2011, dated 2016).

Key:
[1] = Stability studies (light, humidity, heat), overall comparison; conditions: summary of high-temperature, high humidity and intense light tests
Procedure: (§1) The test samples were open-stored in culture dishes at 60° C. for 10 days, and taken and detected on Day 5 and Day 10. • The characteristics, especially colour change were observed. • Melting points were measured by automatic melting point apparatus. • By self-reflection, TLC is used to observe whether the spot numbers were increased after 5 days and 10 days.
(§2) The test samples were open-stored in closed constant humidity desiccators under the condition of 25° C. and relative humidity of 90%+5% for 10 days, and taken and detected on Day 5 and Day 10. Meanwhile, each sample was accurately weighed before and after test.
(§3) The test samples were open-stored in “adjustable light boxes” under the conditions of illumination of 4500LX±500LX for 10 days, and taken and detected on Day 5 and Day 10 with regards to dry items. • The characteristics, especially colour change was observed. • Melting points were measured by an automatic melting point apparatus. • By self-reflection, TLC is used to observe whether the spot numbers were increased after 5 days and 10 days.

[2] = High humidity test (25° C., relative humidity 90% ± 5%), stability study; assay type: physicochemical; conditions: RH 90% ± 5%; for Appearance Day 0: Day 0, cell wraps; for Appearance Day 0 / Appearance Day 5 / Appearance Day 10: first line given; for Appearance Day 5: Day 5, cell wraps; for Appearance Day 10: Day 10, cell wraps;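 for all read-outs here: samples kept uncovered in sealed humidity desiccators, appearance judged mainly by colour change, melting point on an automatic apparatus, TLC checked for extra spots versus start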
Procedure: as §2
The characteristics, especially colour change was observed.
Melting points were measured by an automatic melting point apparatus.
By self-reflection, TLC is used to observe whether the spot numbers were increased after 5 days and 10 days.

[3] = High-temperature test (60° C.), stability study; assay type: physicochemical; conditions: open-stored; for Appearance Day 5: Day 5, cell wraps; for Appearance Day 5 / Appearance Day 10: first line given; for Appearance Day 10: Day 10, cell wraps;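 for all read-outs here: samples kept uncovered in dishes at 60 °C for up to 10 days and examined on Day 5 and Day 10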
Procedure: as §1

[4] = Intense light irradiation test (4500LX ± 500LX), stability study; assay type: physicochemical; conditions: for Appearance Day 0: Day 0, cell wraps; for Appearance Day 0 / Appearance Day 5 / Appearance Day 10: first line given; for Appearance Day 5: Day 5, cell wraps; for Appearance Day 10: Day 10, cell wraps
Procedure: as §3

[5] = system: ethanol-induced gastric ulcer; assay: Anhydrous ethanol-induced gastric ulcer in mice; assay type: in vivo, Kunming mice; set-up: key to Gastri ulcer score (X ± SD) / Ulcer score (X ± SD) / Gastric ulcer score (X ± SD): summed pathology score: congestion 1, hemorrhage/erosion 1, linear erosion 3
Procedure: Kunming mice, half male and half female, weighing 18-22 g, provided by the West China Animal Center
(1) Azulene sodium sulphonate was added with 0.5% CMC to prepare a suspension with concentration of 0.15 mg/ml.
(2) 20 mg of Omeprazole was added with 0.5% CMC to prepare a suspension with concentration of 0.67 mg/ml.
Kunming mice were randomly grouped according the body weight (one model control group or negative control group, one Omeprazole control group or positive control group, one Azulene sodium sulphonate control group, twelve test drug groups), eight mice for each group, half male and half female.
Administration: Model control group was administrated intragastrically with 0.5% CMC solution at a dose of 0.4 ml/20 g; Omeprazole control group was administrated intragastrically with Omeprazole at a dose of 0.4 ml/20 g, Azulene sodium sulphonate control group and each test drug groups were administrated intragastrically with their respective drug at a dose of 0.4 ml/20 g. The mice in each group were administrated once a day for successive five days. 0.5 hour after final administration, the mice in each group were administrated intragastrically with 0.5 ml of anhydrous ethanol, one hour later the mice were executed and dissected, and their stomaches were taken, washed and scored according to the pathological degree. For local congestion and rubefaction, score was 1; for petechial hemorrhage or erosion, score was respectively 1, for each linear erosion, score was 3. Statistical analysis was performed. Ulcer scores were calculated, significant differences between the groups were compared and the inhibition rates of ulcer were calculated [Inhibition rate of ulcer=(ulcer score of model group−ulcer score of drug administration group)/ulcer score of model group].

Row | Compound | light, humidity and heat stability in words [1] | Melting point Day 0 [2] | Spot numbers on TLC Day 0 [2] | hygroscopic rate (%) Day 0 [2] [%] | Appearance Day 0 [2] | Melting point Day 5 [2] | Spot numbers on TLC Day 5 [2] | hygroscopic rate (%) Day 5 [2] [%] | Appearance Day 5 [2] | Melting point Day 10 [2] | Spot numbers on TLC Day 10 [2] | Appearance Day 10 [2] | Melting point Day 0 [3] | Spot numbers on TLC Day 0 [3] | Melting point Day 5 [3] | Spot numbers on TLC Day 5 [3] | Appearance Day 5 [3] | Melting point Day 10 [3] | Spot numbers on TLC Day 10 [3] | Appearance Day 10 [3] | further results
1 | Cc1cc(S(=O)(=O)Nc2cccc(Br)c2)c2c(C)ccc(C(C)C)cc1-2 [4a, N-(3-bromophenyl)-3,8-dimethyl-5-isopropyl-1-azulene sulfonamide] | better light, humidity and heat stability than azulene sulfonate sodium | 172.5-174.0 °C | 1 | 1.01 | purple | 172.0-174.5 °C | 1 | 1.46 | purple | 172.0-174.5 °C | 1 | purple | 172.5-174.0 °C | 1 | 172.0-173.5 °C | 1 | purple | 172.5-174.0 °C | 1 | purple | Melting point Day 0 [4]: 172.5-174.0 °C; Spot numbers on TLC Day 0 [4]: 1; Appearance Day 0 [4]: purple; Melting point Day 5 [4]: 172.0-175.0 °C; Spot numbers on TLC Day 5 [4]: 1; Appearance Day 5 [4]: purple; Melting point Day 10 [4]: 173.0-174.0 °C; Spot numbers on TLC Day 10 [4]: 1; Appearance Day 10 [4]: purple; melting point: 172 to 174 °C; Inhibition rate (%) ([5]; Table 4, inhibition rate of ulcer vs model group): 51.31%; Gastri ulcer score (X ± SD) ([5]; Table 4, mice, intragastric once a day for five days, dose equimolar to azulene sulfonate sodium 3.0 mg/kg (Omeprazole 13.4 mg/kg), model group 13.00 ± 1.77): 6.33 ± 4.50; anti-gastric ulcer effect in words ([5]; ethanol-induced gastric ulcer in mice, compared to the model group): significantly relieve the pathological degree
2 | CCCNS(=O)(=O)c1cc(C)c2cc(C(C)C)ccc(C)c1-2 [4f, N-propyl-3,8-dimethyl-5-isopropyl-1-azulene sulfonamide] | better light, humidity and heat stability than azulene sulfonate sodium | 59.5-62.5 °C | 1 | 1.13 | purple | 59.5-63.0 °C | 1 | 1.28 | purple | 59.5-63.0 °C | 1 | purple | 59.5-62.5 °C | 1 | 60.0-62.0 °C | 1 | purple | 60.0-62.0 °C | 1 | purple | Melting point Day 0 [4]: 59.5-62.5 °C; Spot numbers on TLC Day 0 [4]: 1; Appearance Day 0 [4]: purple; Melting point Day 5 [4]: 58.5-62.0 °C; Spot numbers on TLC Day 5 [4]: 1; Appearance Day 5 [4]: purple; Melting point Day 10 [4]: 57.5-61.5 °C; Spot numbers on TLC Day 10 [4]: 2; Appearance Day 10 [4]: purple; melting point: 60 to 62 °C
3 | Cc1ccc(NS(=O)(=O)c2cc(C)c3cc(C(C)C)ccc(C)c2-3)cc1 [4g, N-(4-methylphenyl)-3,8-dimethyl-5-isopropyl-1-azulene sulfonamide] | better light, humidity and heat stability than azulene sulfonate sodium | 146.0-148.5 °C | 1 | 1.56 | purple | 145.5-148.5 °C | 1 | 2.01 | purple | 145.5-148.5 °C | 1 | purple | 146.0-148.5 °C | 1 | 146.0-148.0 °C | 1 | purple | 145.5-147.5 °C | 1 | purple | Melting point Day 0 [4]: 146.0-148.5 °C; Spot numbers on TLC Day 0 [4]: 1; Appearance Day 0 [4]: purple; Melting point Day 5 [4]: 145.0-147.5 °C; Spot numbers on TLC Day 5 [4]: 1; Appearance Day 5 [4]: purple; Melting point Day 10 [4]: 143.5-147.5 °C; Spot numbers on TLC Day 10 [4]: 2; Appearance Day 10 [4]: purple; melting point: 146 to 148 °C
4 | CCNS(=O)(=O)c1cc(C)c2cc(C(C)C)ccc(C)c1-2 [4h, N-ethyl-3,8-dimethyl-5-isopropyl-1-azulene sulfonamide] | better light, humidity and heat stability than azulene sulfonate sodium | 123.5-125.5 °C | 1 | 1.14 | blue | 123.5-125.5 °C | 1 | 2.11 | blue | 123.5-125.5 °C | 1 | blue | 123.5-125.5 °C | 1 | 123.5-125.5 °C | 1 | blue | 124.5-125.0 °C | 1 | blue | Melting point Day 0 [4]: 123.5-125.5 °C; Spot numbers on TLC Day 0 [4]: 1; Appearance Day 0 [4]: blue; Melting point Day 5 [4]: 122.0-125.5 °C; Spot numbers on TLC Day 5 [4]: 1; Appearance Day 5 [4]: blue; Melting point Day 10 [4]: 121.0-126.0 °C; Spot numbers on TLC Day 10 [4]: 2; Appearance Day 10 [4]: blue; melting point: 96 to 98 °C
5 | Cc1cc(S(=O)(=O)NCc2ccccc2)c2c(C)ccc(C(C)C)cc1-2 [4j, N-benzyl-3,8-dimethyl-5-isopropyl-1-azulene sulfonamide] | better light, humidity and heat stability than azulene sulfonate sodium | 124.0-126.0 °C | 1 | 1.24 | dark | 124.0-126.5 °C | 1 | 2.08 | dark | 124.5-126.5 °C | 1 | blue | 124.0-125.5 °C | 1 | 124.0-125.5 °C | 1 | dark blue | 124.0-125.5 °C | 1 | blue | Melting point Day 0 [4]: 124.0-125.5 °C; Spot numbers on TLC Day 0 [4]: 1; Appearance Day 0 [4]: dark blue; Melting point Day 5 [4]: 123.5-125.5 °C; Spot numbers on TLC Day 5 [4]: 1; Appearance Day 5 [4]: dark; Spot numbers on TLC Day 10 [4]: 2; Appearance Day 10 [4]: blue; melting point: 124 to 126 °C
6 | Cc1cc(S(=O)(=O)Nc2ccc(Cl)cc2)c2c(C)ccc(C(C)C)cc1-2 [4k, N-(4-chlorophenyl)-3,8-dimethyl-5-isopropyl-1-azulene sulfonamide] | better light, humidity and heat stability than azulene sulfonate sodium | 134.5-135.0 °C | 1 | 1.17 | purple | 134.5-135.5 °C | 1 | 1.87 | purple | 134.5-135.5 °C | 1 | purple | 134.5-135.0 °C | 1 | 134.0-135.5 °C | 1 | purple | 134.0-135.5 °C | 1 | purple | Melting point Day 0 [4]: 134.5-135.0 °C; Spot numbers on TLC Day 0 [4]: 1; Appearance Day 0 [4]: purple; Melting point Day 5 [4]: 134.0-135.5 °C; Spot numbers on TLC Day 5 [4]: 1; Appearance Day 5 [4]: purple; Melting point Day 10 [4]: 134.0-135.5 °C; Spot numbers on TLC Day 10 [4]: 1; Appearance Day 10 [4]: purple; melting point: 134 to 135 °C
